Here are results for 2 compounds from US20050101593A1, “Phosphoric acid salt of an integrin receptor antagonist” (priority 2000, published 2005).

Data set [1] can be described thus: solubility in water and buffered solutions. The data set is classed as physicochemical. To be noted: water and buffered solutions between pH 2 and 8.
Data set [2] can be described thus: hygroscopicity. It is filed as physicochemical. To be noted: compared with the amorphous zwitterion of formula (IV). The source says: (§1) The enhanced stability and non-hygroscopic nature of the crystalline salt constitute advantageous properties in the preparation of solid pharmaceutical dosage forms containing the pharmacologically active ingredient.
Data set [3] is described as follows: chemical stability to heat and light. The data set is classed as physicochemical. The note with it: compared with the amorphous parent zwitterionic compound of formula (IV).
From the text: as §1

Molecules are shown by their SMILES. Counter-ions that a name gives are not always drawn.

Take `COc1ncc(C(CC(=O)O)CC(=O)CCCCc2ccc3c(n2)NCCCC3)cn1.O=P(O)(O)O` (single isomer, unassigned) [1-17a, 3(S or R)-(2-Methoxy-pyrimidin-5-yl)-5-oxo-9-(6,7,8,9-tetrahydro-5H-pyrido[2,3-b]azepin-2-yl)-nonanoic Acid Phosphoric Acid Salt]: the melting point came to 127 °C.
For `COc1ncc(C(CC(=O)O)CC(=O)CCCCc2ccc3c(n2)NCCCC3)cn1` (stereo not shown) [salt of formula I, phosphoric acid salt of 3-(2-methoxy-pyrimidin-5-yl)-5-oxo-9-(6,7,8,9-tetrahydro-5H-pyrido[2,3-b]azepin-2-yl)-nonanoic acid], the solubility in data set [1] is > 12 mg/mL. In addition, the hygroscopicity result in data set [2] is listed as “significantly less hygroscopic”. Besides, the “chemical stability to heat and light” value in data set [3] was “greater chemical stability to heat and light”.

One may read the melting point as the temperature, or range, at which the solid turns liquid. A word on the solubility: it is the concentration that dissolves in the medium under given conditions.
